The results in this text go back to patent US9187487B2, “Azaindole derivatives as tyrosine kinase inhibitors” (PRINCIPIA BIOPHARMA, INC., priority 2011, dated 2015).

For the assay, the target named is recombinant JAK3 (catalytic domain, aa 781-1124) (Homo sapiens (Human), UniProt P52333). Put plainly: JAK3 Caliper Peptide Phosphorylation Assay. It counts as biochemical. As to conditions: fluorescently labeled Srctide substrate 1 uM; ATP at 1×Km (2 uM); 2 hours at 25° C. The protocol:
JAK3 Caliper Peptide Phosphorylation Assay
Phosphorylation of the appropriate peptide substrate (fluorescently labeled Srctide) by recombinant JAK3 (catalytic domain, aa 781-1124) was measured in the presence and absence of different concentrations of test compounds. Test compound, enzyme, fluorescently labeled substrate, and cofactors (ATP and Mg^2+) were combined in a well of a microtiter plate and incubated for 2 hours at 25° C. The composition of the reaction buffer was 100 mM HEPES pH 7.5, 5 mM MgCl2, 0.01% Triton-X 100, 0.1% Bovine Serum Albumin, and 1% DMSO. Enzyme concentration in the final reaction mixture was 0.5 nM while peptide substrate was at 1 uM. ATP was used at 1×Km concentration corresponding to 2 uM. Serial dilutions (3-fold steps) of compounds were prepared in DMSO. At the end of the incubation, the reaction was stopped by the addition of 20 mM EDTA. Substrate and product (i.e. phosphorylated substrate) were separated electrophoretically and both were quantified by fluorescence intensity using the microfluidics-based LabChip 3000 Drug Discovery System from Caliper Life Sciences. Conversion for each well was calculated and plotted as function of test compound concentration. IC50 value was determined by fitting the data to a 4-parameter logistic model by non-linear regression (XLfit model 205). In every assay, Staurosporine was tested in the same manner as reference compound. Selectivity for JAK3 was determined using commercially available kinase cross-screening services (DiscoveRx, San Diego, Calif.).

recombinant JAK3 (catalytic domain, aa 781-1124), sequence (P52333 781-1124): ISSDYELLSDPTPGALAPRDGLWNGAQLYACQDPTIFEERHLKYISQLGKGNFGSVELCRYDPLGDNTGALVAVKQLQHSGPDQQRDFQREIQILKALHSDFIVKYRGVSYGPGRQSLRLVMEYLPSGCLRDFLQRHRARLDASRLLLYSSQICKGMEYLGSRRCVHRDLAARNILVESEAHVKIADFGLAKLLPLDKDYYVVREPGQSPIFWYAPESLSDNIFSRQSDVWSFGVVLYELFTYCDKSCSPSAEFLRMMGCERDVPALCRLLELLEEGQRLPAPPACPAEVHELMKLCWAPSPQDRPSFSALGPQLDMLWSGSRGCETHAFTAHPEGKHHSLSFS

In the case of `CN(C)C(=O)C(C#N)=Cc1cccc(-c2ncnc3[nH]ccc23)c1` [compound 1, 3-(3-(7H-pyrrolo[2,3-d]pyrimidin-4-yl)phenyl)-2-cyano-N,N-dimethylacrylamide], the IC50 – broadly, the midpoint of a concentration-inhibition curve – came out at 305 nM.
Under `CN(C)C(=O)C(C#N)=Cc1cccc(Nc2ncnc3[nH]ccc23)c1` [compound 3, 3-(3-((7H-pyrrolo[2,3-d]pyrimidin-4-yl)amino)-phenyl)-2-cyano-N,N-dimethylacrylamide] stands 150 nM; under `CN(C)C(=O)C(C#N)=Cc1cccc(N(C)c2ncnc3[nH]ccc23)c1` [compound 4, 2-cyano-N,N-dimethyl-3-(3-(methyl(7H-pyrrolo[2,3-d]pyrimidin-4-yl)amino)phenyl)acrylamide], more than 1000 nM.
Under `CN(C)C(=O)C(C#N)=Cc1ccc(Nc2ncnc3[nH]ccc23)cc1` [compound 6, 3-(4-((7H-pyrrolo[2,3-d]pyrimidin-4-yl)amino)-phenyl)-2-cyano-N,N-dimethylacrylamide] stands 580 nM; under `CN(C)C(=O)C(C#N)=Cc1ccc(N(C)c2ncnc3[nH]ccc23)cc1` [compound 7, 2-cyano-N,N-dimethyl-3-(4-(methyl(7H-pyrrolo[2,3-d]pyrimidin-4-yl)amino)phenyl)acrylamide], more than 1000 nM.
Consider `CN(C)C(=O)C(C#N)=Cc1cccc(Oc2ncnc3[nH]ccc23)c1` [compound 11, 3-(3-((7H-pyrrolo[2,3-d]pyrimidin-4-yl)oxy)phenyl)-2-cyano-N,N-dimethylacrylamide], for which the 50% inhibitory concentration (IC50) was more than 1000 nM.
Under `CN(C)C(=O)C(C#N)=Cc1ccc(Oc2ncnc3[nH]ccc23)cc1` [compound 12, 3-(4-((7H-pyrrolo[2,3-d]pyrimidin-4-yl)oxy)phenyl)-2-cyano-N,N-dimethylacrylamide] stands 280 nM.
For the compound `COc1c(C=C(C#N)C(=O)N(C)C)cccc1Nc1ncnc2[nH]ccc12` [compound 15, 3-(3-((7H-pyrrolo[2,3-d]pyrimidin-4-yl)amino)-2-methoxyphenyl)-2-cyano-N,N-dimethylacrylamide], the 50% inhibitory concentration (IC50) came out at 2200 nM.
Under `Cc1c(C=C(C#N)C(=O)N(C)C)cccc1Nc1ncnc2[nH]ccc12` [compound 16, 3-(3-((7H-pyrrolo[2,3-d]pyrimidin-4-yl)amino)-2-methylphenyl)-2-cyano-N,N-dimethylacrylamide] stands 1270 nM.
On to `CN(C)C(=O)C(C#N)=Cc1cc(Nc2ncnc3[nH]ccc23)ccc1Cl` [compound 17, 3-(5-((7H-pyrrolo[2,3-d]pyrimidin-4-yl)amino)-2-chlorophenyl)-2-cyano-N,N-dimethylacrylamide], for which the IC50 worked out at 1770 nM.
Under `Cc1ccc(Nc2ncnc3[nH]ccc23)cc1C=C(C#N)C(=O)N(C)C` [compound 19, 3-(5-((7H-pyrrolo[2,3-d]pyrimidin-4-yl)amino)-2-methylphenyl)-2-cyano-N,N-dimethylacrylamide] stands more than 5000 nM.
Under `CN(C)C(=O)C(C#N)=Cc1cccc(-c2cnc3[nH]ccc3n2)c1` [compound 27, 3-(3-(5H-pyrrolo[2,3-b]pyrazin-2-yl)phenyl)-2-cyano-N,N-dimethylacrylamide] stands more than 1000 nM; under `CN(C)C(=O)C(C#N)=Cc1cccc(Nc2cnc3[nH]ccc3n2)c1` [compound 29, 3-(3-((5H-pyrrolo[2,3-b]pyrazin-2-yl)amino)phenyl)-2-cyano-N,N-dimethylacrylamide], more than 1000 nM.
Under `CN(C)C(=O)C(C#N)=Cc1cccc(Oc2cnc3[nH]ccc3n2)c1` [compound 31, 3-(3-((5H-pyrrolo[2,3-b]pyrazin-2-yl)oxy)phenyl)-2-cyano-N,N-dimethylacrylamide] stands more than 1000 nM.
On to `CN(C)C(=O)C(C#N)=Cc1ccc(Oc2cnc3[nH]ccc3n2)cc1` [compound 32, 3-(4-((5H-pyrrolo[2,3-b]pyrazin-2-yl)oxy)phenyl)-2-cyano-N,N-dimethylacrylamide], for which the half-inhibitory concentration (IC50) came out at 320 nM.
On to `CC(C)NC(=O)c1c[nH]c2ncc(-c3cccc(C=C(C#N)C(=O)N(C)C)c3)nc12` [compound 47, 2-(3-(2-cyano-3-(dimethylamino)-3-oxoprop-1-en-1-yl)phenyl)-N-isopropyl-5H-pyrrolo[2,3-b]pyrazine-7-carboxamide], for which the 50% inhibitory concentration (IC50) amounted to 13 nM.
Under `CC(C)NC(=O)c1c[nH]c2ncc(Nc3ccc(C=C(C#N)C(=O)N(C)C)cc3)nc12` [compound 50, 2-((4-(2-cyano-3-(dimethylamino)-3-oxoprop-1-en-1-yl)phenyl)amino)-N-isopropyl-5H-pyrrolo[2,3-b]pyrazine-7-carboxamide] stands 0.2 nM.
In the case of `CC(C)NC(=O)c1c[nH]c2ncc(Oc3cccc(C=C(C#N)C(=O)N(C)C)c3)nc12` [compound 51, 2-(3-(2-cyano-3-(dimethylamino)-3-oxoprop-1-en-1-yl)phenoxy)-N-isopropyl-5H-pyrrolo[2,3-b]pyrazine-7-carboxamide], the IC50 is 1150 nM.
Under `CN(C)C(=O)C(C#N)=Cc1ccc(Nc2cnc3[nH]cc(C(=O)C(C)(C)C)c3n2)cc1` [compound 57, 2-cyano-N,N-dimethyl-3-(4-((7-pivaloyl-5H-pyrrolo[2,3-b]pyrazin-2-yl)amino)phenyl)-acrylamide] stands 1 nM; under `CC(C)(C)C(=O)c1c[nH]c2ncc(Nc3ccc(C=C(C#N)C(N)=O)cc3)nc12` [compound 60, 2-cyano-3-(4-((7-pivaloyl-5H-pyrrolo[2,3-b]-pyrazin-2-yl)amino)phenyl)acrylamide], 0.4 nM.
Turning to `CC(C)(C)C(=O)c1c[nH]c2ncc(Nc3ccc(C=C(C#N)C(=O)N4CCC4)cc3)nc12` [compound 62, 2-(azetidine-1-carbonyl)-3-(4-((7-pivaloyl-5H-pyrrolo[2,3-b]pyrazin-2-yl)amino)phenyl)acrylonitrile], the IC50 is 0.4 nM.
`CN1CCN(C(=O)C(C#N)=Cc2ccc(Nc3cnc4[nH]cc(C(=O)C(C)(C)C)c4n3)cc2)CC1` [compound 64, 2-(4-methylpiperazine-1-carbonyl)-3-(4-(7-pivaloyl-5H-pyrrolo[2,3-b]pyrazin-2-ylamino)phenyl)acrylonitrile]: the half-inhibitory concentration (IC50) stood at 0.2 nM.
For the compound `CN(C)C(=O)C(C#N)=Cc1ccc(Nc2cnc3[nH]cc(C(=O)C(C)(C)C)c3n2)cc1F` [compound 66, 2-cyano-3-(2-fluoro-4-((7-pivaloyl-5H-pyrrolo[2,3-b]pyrazin-2-yl)amino)phenyl)-N,N-dimethylacrylamide], the IC50 turned out to be 0.7 nM.
As for `CN(C)C(=O)C(C#N)=Cc1ccc(Nc2cnc3[nH]cc(C(=O)C(C)(C)C)c3n2)cc1Cl` [compound 68, 3-(2-chloro-4-(7-pivaloyl-5H-pyrrolo-[2,3-b]pyrazin-2-ylamino)phenyl)-2-cyano-N,N-dimethylacrylamide], the IC50 was found to be 1 nM.
Under `CN(C)C(=O)C(C#N)=Cc1ccc(Nc2cnc3[nH]cc(C(=O)C(C)(C)C)c3n2)c(F)c1` [compound 69, 2-cyano-3-(3-fluoro-4-((7-pivaloyl-5H-pyrrolo[2,3-b]pyrazin-2-yl)amino)phenyl)-N,N-dimethylacrylamide] stands 0.5 nM; under `CN(C)C(=O)C(C#N)=Cc1ccc(Nc2cnc3[nH]cc(C(=O)C(C)(C)C)c3n2)cn1` [compound 70, 2-cyano-N,N-dimethyl-3-(5-((7-pivaloyl-5H-pyrrolo[2,3-b]pyrazin-2-yl)amino)pyridin-2-yl)acrylamide], 0.9 nM; under `CN(C)C(=O)C(C#N)=Cc1ccc(Nc2cnc3[nH]cc(C(=O)NC(C)(C)C)c3n2)cc1` [compound 71, N-(tert-butyl)-2-((4-(2-cyano-3-(dimethylamino)-3-oxoprop-1-en-1-yl)phenyl)amino)-5H-pyrrolo[2,3-b]pyrazine-7-carboxamide], 0.2 nM.
On to `CN(C)C(=O)C(C#N)=Cc1ccc(Nc2cnc3[nH]cc(C(=O)C(C)(C)C)c3n2)s1` [compound 73, 2-cyano-N,N-dimethyl-3-(5-((7-pivaloyl-5H-pyrrolo[2,3-b]pyrazin-2-yl)amino)thiophen-2-yl)acrylamide], for which the half-inhibitory concentration (IC50) was found to be 210 nM.
Take `CC(C)(C)C(=O)c1c[nH]c2ncc(Nc3ccc(C=C(C#N)C(=O)N4CCCCC4)cc3)nc12` [compound 76, 2-(piperidine-1-carbonyl)-3-(4-((7-pivaloyl-5H-pyrrolo[2,3-b]pyrazin-2-yl)amino)phenyl)-acrylonitrile]: the half-inhibitory concentration (IC50) amounted to 1 nM.
Under `CCNC(=O)C(C#N)=Cc1ccc(Nc2cnc3[nH]cc(C(=O)C(C)(C)C)c3n2)cc1` [compound 77, 2-cyano-3-(4-((7-pivaloyl-5H-pyrrolo[2,3-b]pyrazin-2-yl)amino)phenyl)-N-ethylacrylamide] stands 1 nM; under `CCN1C(=O)SC(=Cc2ccc(Nc3cnc4[nH]cc(C(=O)C(C)(C)C)c4n3)cc2)C1=O` [compound 78, 3-ethyl-5-(4-((7-pivaloyl-5H-pyrrolo[2,3-b]pyrazin-2-yl)amino)benzylidene)thiazolidine-2,4-dione], 33.5 nM.
Regarding `CCOC(=O)C(C#N)=Cc1ccc(Nc2cnc3[nH]cc(C(=O)C(C)(C)C)c3n2)cc1` [compound 79, ethyl 2-cyano-3-(4-((7-pivaloyl-5H-pyrrolo[2,3-b]-pyrazin-2-yl)amino)phenyl)acrylate], the IC50 came to 100 nM.
